# Test results reported in ChEMBL document CHEMBL1201862, “PubChem BioAssay data set” (2004).
# Where a name gives a salt, the structure may show the parent alone. Active and inactive are the calls of the source.
# Experiments:
# [1] = blockers of HIV-1 ZM109 envelope-driven cell-cell fusion – HeLa effector, CEM target cells, luciferase, cherry-pick, dose response (AID 652058); assay type: functional, cell-based;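 note: luciferase signal from HIV-1 Env mediated cell-cell fusion of effector and target cells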
# HEK293 = test: EBV LMP1 TES2 canonical NF-kB signalling blockers – cell-based, HEK293, luciferase, cherry-pick, dose response (AID 588343); assay type: functional; settings: Homo sapiens
# [2] = blockers of HIV-1 envelope-mediated cell-cell fusion – cherry-pick, dose response (AID 652057); assay type: functional, cell-based
# [3] = HIV-1 AD8 envelope cell-cell fusion blockers – cherry-pick, dose response (AID 652062); assay type: functional, cell-based;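 note: luciferase signal from cell-cell fusion driven by HIV-1 clade B AD8 Env; potency is for inhibitors of fusion seen as a drop in luminescence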
# [4] = off-target signal loss in HeLa-CEM21 co-culture – HeLa F-luc CTL cells, cherry-picked, counter-screen for HIV-1 Env fusion inhibitor project, dose response (AID 652040); assay type: functional, cell-based;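 note: potency for signal decrease marking cytotoxic or nonspecific inhibition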
# Paired box protein Pax-8 = Paired box protein Pax-8 (Homo sapiens, UniProt Q06710); test: PAX8 transcriptional activity inhibition in RMG-I – RMG-I cells, luciferase, cherry-pick, dose response (AID 687027); assay type: functional, cell-based;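 note: luciferase reporter driven by Pax8 target thyroperoxidase promoter measured by SteadyGlo luminescence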
# [5] = OVCAR-3 cell viability loss – plate reader, dry powder samples, PAX8 inhibitor project, dose response (AID 743044); assay type: functional, cell-based
# [6] = general mammalian cell viability loss – activator set, cherry-pick, cytotoxicity control for miR-122 modulator project, dose response (AID 720690); assay type: functional, cell-based;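 note: HEK293T human cells scored for general mammalian cytotoxicity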
# [7] = OVCAR8 cell viability loss – plate reader, dry powder samples, PAX8 project, dose response (AID 743197); assay type: functional, cell-based; settings: OVCAR-8
# [8] = target: Disintegrin and metalloproteinase domain-containing protein 17 (Homo sapiens, UniProt P78536); test: exosite inhibitors of ADAM17, dose response, biochemical (AID 743260)
# [9] = Luminescence-based cell-based high throughput dose response assay to identify activators of the DAF-12 from the parasite S. stercoralis (ssDAF-12).; assay type: functional
# [10] = target: T1, Oxysterols receptor LXR-beta (Homo sapiens, UniProt P55055); test: LXR agonists, Gal4 luciferase reporter, dose response, counter-screen for ssDAF-12 agonist project, cell-based, luminescence, HEK293, S. stercoralis campaign (AID 720737); assay type: functional; settings: read-out: IC50 (the source's name)
# T1 sequence (P55055 whole entry): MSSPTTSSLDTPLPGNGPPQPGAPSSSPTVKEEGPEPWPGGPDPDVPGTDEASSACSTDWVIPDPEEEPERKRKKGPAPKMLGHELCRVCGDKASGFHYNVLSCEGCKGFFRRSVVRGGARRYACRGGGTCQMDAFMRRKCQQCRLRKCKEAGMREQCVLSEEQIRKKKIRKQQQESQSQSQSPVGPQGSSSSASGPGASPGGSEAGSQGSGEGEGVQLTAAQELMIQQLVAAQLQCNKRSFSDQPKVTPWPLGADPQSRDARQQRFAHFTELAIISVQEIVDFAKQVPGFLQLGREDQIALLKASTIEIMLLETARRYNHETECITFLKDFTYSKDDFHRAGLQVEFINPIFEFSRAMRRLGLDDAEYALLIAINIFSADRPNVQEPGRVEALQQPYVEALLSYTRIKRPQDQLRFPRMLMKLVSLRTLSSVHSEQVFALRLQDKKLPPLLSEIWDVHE
# cells [11] = test: cells
# [12] = target: T1, Oxysterols receptor LXR-beta; assay type: functional, cell-based
# [13] = inhibition of ADAM10 peptide cleavage – biochemical, FRET peptide substrate, recombinant human ADAM10, selectivity assay for ADAM17 exosite inhibitor project, dose response (AID 743259);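 note: ADAM10 enzyme cleaving a FRET peptide substrate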
# [14] = intracellular Trypanosoma cruzi inhibitors in host cells – cell-based, plate reader, cherry-pick samples, set 3, dose response (AID 651818); assay type: functional;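 note: compounds incubated with infected cells for about four days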
# [15] = T. cruzi growth inhibition in host cells, dose response, cell-based, plate reader, dry powder, set 2 (AID 652275); assay type: functional
# [16] = anti-trypanosomal activity in BESM host cells – imaging, CA-I/72 strain, bovine embryo skeletal muscle, dry powder, dose response (AID 651885); assay type: functional, cell-based
# [17] = Trypanosoma cruzi replication inhibitors in host cells – cell-based, plate reader, dry powder samples, dose response (AID 651845); assay type: functional
# [18] = target: T2, Beta-2 adrenergic receptor (Homo sapiens, UniProt P07550); test: Dose response for HTS for Beta-2AR agonists via FAP method from Powderset3.; assay type: functional
# [19] = viability inhibitors of stage V gametocytes – luminescence, dose response (AID 1117278); assay type: functional, cell-based;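 note: gametocytes exposed to compound for 24 hours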
# [20] = viability of uninfected HEp-2 cells – cell-based, HTS, cytotoxicity control for RSV inhibitor project, dose response (AID 2410); assay type: functional; settings: human respiratory syncytial virus
# Streptokinase A = target: T3, Streptokinase A (Streptococcus pyogenes serotype M1, UniProt P10520); test: viability-normalized secreted streptokinase activity reduction – plasminogen activation absorbance, OD405, dose response (AID 1914); assay type: functional, Streptococcus pyogenes M1 GAS;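 note: secreted streptokinase activity via plasminogen activation per viability signal from cell pellet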
# T3 sequence (P10520 whole entry): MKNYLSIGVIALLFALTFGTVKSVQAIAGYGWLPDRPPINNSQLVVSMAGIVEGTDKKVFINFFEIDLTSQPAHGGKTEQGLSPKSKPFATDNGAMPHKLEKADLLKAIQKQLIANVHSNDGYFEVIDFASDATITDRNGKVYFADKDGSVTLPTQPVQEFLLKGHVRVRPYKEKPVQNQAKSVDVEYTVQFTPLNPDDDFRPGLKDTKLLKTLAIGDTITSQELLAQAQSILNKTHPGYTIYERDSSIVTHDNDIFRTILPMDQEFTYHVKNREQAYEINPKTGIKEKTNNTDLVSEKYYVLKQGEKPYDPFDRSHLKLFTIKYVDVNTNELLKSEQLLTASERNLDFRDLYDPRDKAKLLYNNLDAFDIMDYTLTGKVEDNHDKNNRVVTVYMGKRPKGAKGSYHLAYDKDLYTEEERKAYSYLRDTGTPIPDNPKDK
# Streptococcus = test: GAS UMAA2166 growth inhibition – luminescence, BacTiterGlo, counter-screen for streptokinase expression inhibitor project, dose response (AID 1915); assay type: functional, organism-based;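 note: potency for reduction of bacterial viability or growth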
# [21] = target: T2, Beta-2 adrenergic receptor; test: ADRB2 activation measured by internalization – cell-based, FAP fluorogen, flow cytometry, cherry pick 1, dose response (AID 588763); assay type: functional
# [22] = test system: Streptococcus sp. 'group A'; test: Streptococcus pyogenes SK(-)GAS viability under kanamycin – luminescence, BacTiterGlo, confirmation, counter-screen for streptokinase expression inhibitor project, dose response (AID 1900); assay type: functional, organism-based
# [23] = viability loss in human Jurkat cells – cell-based, luminescence, cytotoxicity control for P. falciparum gametocyte viability project, dose response (AID 1117277); assay type: functional;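 note: potency reflects loss of cellular ATP meaning fewer viable cells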
# cells [24] = assay type: functional, cell-based
# cells [25] = assay type: functional, cell-based; remark: listed apart in the source
# [26] = target: T4, Trace amine-associated receptor 1 (Homo sapiens, UniProt Q96RJ0); test: Counterscreen for agonists of the human trace amine associated receptor 1 (hTAAR1): Fluorescence-based cell-based high throughput dose response assay to identify hTAAR1 agonist that also desensitize TAAR1 receptor response.; assay type: functional
# T4 sequence (Q96RJ0 whole entry): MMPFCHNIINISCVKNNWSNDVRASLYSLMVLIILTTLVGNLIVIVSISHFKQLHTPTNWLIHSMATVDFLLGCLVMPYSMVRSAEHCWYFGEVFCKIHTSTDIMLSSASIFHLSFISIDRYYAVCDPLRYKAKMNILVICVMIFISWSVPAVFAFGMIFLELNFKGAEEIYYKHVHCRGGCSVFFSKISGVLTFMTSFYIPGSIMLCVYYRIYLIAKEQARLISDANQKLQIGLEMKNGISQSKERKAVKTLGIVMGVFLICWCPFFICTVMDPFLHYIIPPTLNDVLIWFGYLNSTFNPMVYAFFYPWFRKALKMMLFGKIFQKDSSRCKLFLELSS
# [27] = target: T4, Trace amine-associated receptor 1; test: Fluorescence-based cell-based high throughput dose response assay to identify agonists of the human trace amine associated receptor 1 (TAAR1).; assay type: functional
# [28] = target: Potassium channel subfamily K member 3 (Homo sapiens, UniProt O14649); test: inhibition of human KCNK3 channel flux – CHO cells, FluxOR thallium flux, SAR follow-up (AID 652212); assay type: functional
# [29] = target: Potassium channel subfamily K member 9 (Homo sapiens, UniProt Q9NPC2); test: KCNK9 flux blockade, concentration-response – cell-based, FluxOR thallium flux, selectivity assay for TASK1 inhibitor project, SAR follow-up (AID 652211); assay type: functional;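 note: potency is for inhibitors of the channel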
# [30] = potency of ADAM10 substrate cleavage blockers – biochemical, QFRET, dose response (AID 743254);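 note: ADAM10 enzyme with the DM2 quenched FRET peptide as substrate; EDANS fluorescence gain as the protease cuts the substrate; inhibitor potency against ADAM10 proteolytic activity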
# INS1 = test: INS-1E survival protection against cytokine death – cell-based, luminescence, retest, dose response (AID 449756); assay type: functional; settings: Rattus norvegicus;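 note: cell death triggered by IL-1 beta plus TNF-alpha plus IFN-gamma mixture; protective hits raise ATP signal compared with cytokine alone wells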
# [31] = viability loss in CEM21 cells – cell-based, CellTiter-Glo luminescence, cherry-picked, cytotoxicity control for viral fusion inhibitor project, dose response (AID 652042); assay type: functional;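 note: potency for signal decrease meaning cytotoxicity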
# T2 sequence (P07550 whole entry): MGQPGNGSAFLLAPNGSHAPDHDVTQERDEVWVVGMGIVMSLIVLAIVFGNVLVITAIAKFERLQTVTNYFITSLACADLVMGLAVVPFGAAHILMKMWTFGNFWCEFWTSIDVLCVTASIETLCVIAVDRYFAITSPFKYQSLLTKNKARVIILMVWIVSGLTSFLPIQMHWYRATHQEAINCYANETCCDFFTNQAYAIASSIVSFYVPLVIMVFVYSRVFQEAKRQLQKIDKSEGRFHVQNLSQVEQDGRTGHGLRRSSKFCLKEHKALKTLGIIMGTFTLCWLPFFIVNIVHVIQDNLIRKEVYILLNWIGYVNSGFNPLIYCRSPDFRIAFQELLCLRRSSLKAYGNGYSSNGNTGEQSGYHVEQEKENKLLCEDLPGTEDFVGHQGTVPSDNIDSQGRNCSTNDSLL
# Disintegrin and metalloproteinase domain-containing protein 17, sequence (P78536 whole entry, the tested form may be a part): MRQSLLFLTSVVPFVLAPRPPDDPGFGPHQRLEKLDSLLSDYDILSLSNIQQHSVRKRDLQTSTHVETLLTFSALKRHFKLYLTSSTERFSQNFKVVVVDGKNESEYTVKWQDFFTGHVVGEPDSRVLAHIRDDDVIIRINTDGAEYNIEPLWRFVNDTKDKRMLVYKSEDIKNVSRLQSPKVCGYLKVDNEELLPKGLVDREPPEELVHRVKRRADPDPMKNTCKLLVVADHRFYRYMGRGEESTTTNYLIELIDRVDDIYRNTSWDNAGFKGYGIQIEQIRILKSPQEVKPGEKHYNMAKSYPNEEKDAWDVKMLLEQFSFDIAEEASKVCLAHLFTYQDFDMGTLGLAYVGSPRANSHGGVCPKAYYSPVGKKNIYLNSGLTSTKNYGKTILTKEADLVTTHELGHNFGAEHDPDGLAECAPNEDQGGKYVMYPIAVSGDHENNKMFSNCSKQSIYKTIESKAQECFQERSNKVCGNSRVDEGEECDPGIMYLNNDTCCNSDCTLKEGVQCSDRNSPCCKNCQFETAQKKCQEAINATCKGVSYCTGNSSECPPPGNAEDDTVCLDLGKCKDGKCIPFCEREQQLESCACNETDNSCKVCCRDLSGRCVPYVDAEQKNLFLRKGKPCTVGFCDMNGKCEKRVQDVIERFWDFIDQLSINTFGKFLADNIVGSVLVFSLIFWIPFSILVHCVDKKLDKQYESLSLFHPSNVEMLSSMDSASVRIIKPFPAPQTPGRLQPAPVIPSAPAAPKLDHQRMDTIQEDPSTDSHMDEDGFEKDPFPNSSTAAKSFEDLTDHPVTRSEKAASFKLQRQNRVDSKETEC
# Paired box protein Pax-8, sequence (Q06710 whole entry): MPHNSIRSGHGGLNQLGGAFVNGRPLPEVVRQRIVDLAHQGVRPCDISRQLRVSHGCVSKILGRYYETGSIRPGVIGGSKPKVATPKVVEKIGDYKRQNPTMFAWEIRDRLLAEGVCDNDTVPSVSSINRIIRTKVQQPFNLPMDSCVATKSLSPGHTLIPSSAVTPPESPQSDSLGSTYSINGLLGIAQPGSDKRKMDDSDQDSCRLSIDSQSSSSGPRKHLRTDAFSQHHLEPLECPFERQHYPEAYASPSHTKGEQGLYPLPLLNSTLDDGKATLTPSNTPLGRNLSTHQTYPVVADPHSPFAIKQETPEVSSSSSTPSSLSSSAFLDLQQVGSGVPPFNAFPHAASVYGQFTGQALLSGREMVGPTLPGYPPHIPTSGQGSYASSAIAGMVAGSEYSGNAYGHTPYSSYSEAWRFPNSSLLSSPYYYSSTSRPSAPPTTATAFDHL
# Potassium channel subfamily K member 3, sequence (O14649 whole entry): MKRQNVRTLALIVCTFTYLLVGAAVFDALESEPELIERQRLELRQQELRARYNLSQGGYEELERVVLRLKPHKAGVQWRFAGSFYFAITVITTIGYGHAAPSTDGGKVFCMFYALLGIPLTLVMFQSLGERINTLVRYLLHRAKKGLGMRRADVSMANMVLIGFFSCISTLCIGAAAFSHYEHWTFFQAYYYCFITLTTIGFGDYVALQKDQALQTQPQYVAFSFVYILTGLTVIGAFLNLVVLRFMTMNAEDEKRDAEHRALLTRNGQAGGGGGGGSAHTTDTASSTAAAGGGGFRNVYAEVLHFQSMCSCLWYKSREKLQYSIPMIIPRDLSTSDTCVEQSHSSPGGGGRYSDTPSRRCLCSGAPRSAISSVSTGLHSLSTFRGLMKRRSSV
# Potassium channel subfamily K member 9, sequence (Q9NPC2 whole entry): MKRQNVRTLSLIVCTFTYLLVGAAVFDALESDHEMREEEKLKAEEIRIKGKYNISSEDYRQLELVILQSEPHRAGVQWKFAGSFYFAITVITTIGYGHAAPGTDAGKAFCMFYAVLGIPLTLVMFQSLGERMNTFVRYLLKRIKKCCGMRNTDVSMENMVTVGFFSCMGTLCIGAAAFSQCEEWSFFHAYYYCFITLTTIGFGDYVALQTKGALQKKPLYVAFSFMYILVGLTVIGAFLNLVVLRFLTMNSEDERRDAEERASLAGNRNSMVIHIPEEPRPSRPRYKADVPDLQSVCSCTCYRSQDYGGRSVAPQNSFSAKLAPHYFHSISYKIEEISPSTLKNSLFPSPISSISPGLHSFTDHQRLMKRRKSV
compound,measurement,setting,value
O=C1CCCCC1Sc1nnc(-c2ccc3c(c2)OCO3)o1 (configuration not stated),AC50,[1],41.9 µM (active)
same,AC50,HEK293,0.841 µM (active)
same,AC50,[2],2.73 µM (active)
same,AC50,[3],6.84 µM (active)
same,AC50,[4],12.3 µM (active)
COc1ccc(S(=O)(=O)Nc2ccc3c(c2)CC(=O)N([C@@H](C)CO)C[C@@H](C)[C@H](CN(C)Cc2ccc(C(F)(F)F)cc2)O3)cc1,AC50,[2],13.4 µM (active)
same,AC50,[3],18.5 µM (active)
same,AC50,Paired box protein Pax-8,6.77 µM (active)
same,AC50,[5],24.4 µM (active)
same,AC50,[6],25.5 µM (active)
same,AC50,[7],29.5 µM (active)
C[C@H](NC(=O)c1nc[nH]c1C(=O)NC(c1ccccc1)c1ccccc1)C(=O)OCc1ccccc1,IC50,[8],> 69.5 µM (inactive)
O=C(CSc1nc2nncc-2c(O)[nH]1)Nc1nccs1,IC50,[9],> 67.6 µM (inactive)
same,EC50,[10],> 67.6 µM (inactive)
CC(C)(C)NC(=O)C(c1cc2ccccc2o1)n1c(-c2ccc(-c3ccccc3)cc2)nc2ccccc21 (configuration not stated),EC50,cells [11],> 67.6 µM (inactive)
same,EC50,[12],> 67.6 µM (inactive)
same,IC50,[9],> 67.6 µM (inactive)
same,EC50,[10],> 67.6 µM (inactive)
O=C(Nc1cccc(Cl)c1)OCCOCCOC(=O)Nc1cccc(Cl)c1,IC50,[13],12.9 µM (inactive)
same,IC50,[8],> 69.4 µM (inactive)
C[C@@H]1CN([C@H](C)CO)C(=O)c2cccc(NC(=O)c3ccncc3)c2O[C@H]1CN(C)Cc1ccc(C(F)(F)F)cc1,AC50,[14],0.344 µM (active)
same,AC50,[15],0.0647 µM (active)
same,IC50,[16],0.048 µM (active)
same,AC50,[17],0.0597 µM (active)
CC(Oc1ccc(Cl)cc1Cl)c1nc(-c2ccc(NC(=O)c3ccco3)cc2)no1 (configuration not stated),EC50,[18],0.204 µM (active)
same,IC50,[19],> 109 µM (inactive)
same,CC50,[20],20.2 µM (active)
same,EC50,Streptokinase A,> 150 µM (not active)
same,EC50,Streptococcus,25.7 µM (active)
same,EC50,[21],7.06 µM (active)
same,EC50,[22],21.7 µM (active)
same,IC50,[23],> 83.3 µM (inactive)
c1ccc(CC2=NCCN2)cc1 [TOLAZOLINE HYDROCHLORIDE],EC50,cells [24],> 29.9 µM (inactive)
same,IC50,cells [25],> 29.9 µM (inactive)
same,IC50,[26],4.74 µM (active)
same,EC50,[27],1.01 µM (active)
O=C(Nc1cccc(NC(=O)c2ccccc2)c1)c1ccccc1,IC50,[28],0.024 µM (active)
Cc1cccc(C(=O)Nc2cccc(NC(=O)c3ccccc3C(F)(F)F)c2)c1,IC50,[29],12.9 µM (active)
CNC(=O)[C@@H](NC(=O)[C@H](CC(C)C)[C@H](O)C(=O)NO)C(C)(C)C,IC50,[13],0.0358 µM (active)
same,IC50,[30],0.0607 µM (active)
O=C(Cc1nnc(NC(=O)Nc2ccccc2)s1)NCc1ccccc1,EC50,cells [24],> 29.9 µM (inactive)
same,IC50,cells [25],> 29.9 µM (inactive)
same,IC50,[26],> 29.9 µM (inactive)
same,EC50,[27],> 29.9 µM (inactive)
CCCCCCn1c(=O)c(C(=O)Nc2ncccc2C)c(O)c2ccccc21,AC50,[1],3.78 µM (active)
same,AC50,[2],5.24 µM (active)
same,AC50,[3],4.02 µM (active)
same,EC50,Streptococcus,1.98 µM (active)
same,AC50,[4],5.77 µM (active)
same,AC50,INS1,7.92 µM (active)
same,AC50,[31],28.6 µM (active)
same,EC50,[22],0.566 µM (active)
